What was measured:
Type in all cases: functional
[1] = tested on: KB; experiment: Cytotoxicity against human KB cells after 72 hrs by SRB assay; conditions: read-out: ED50 (the source's name)
[2] = Cytotoxicity against human KBVIN cells after 72 hrs by SRB assay; conditions: read-out: ED50 (the source's name)
[3] = tested on: A549; experiment: Cytotoxicity against human A549 cells after 72 hrs by SRB assay; conditions: A549, 72 h, read-out: ED50 (the source's name)
[4] = tested on: DU-145; experiment: Cytotoxicity against human DU145 cells after 72 hrs by SRB assay; conditions: DU-145, 72 h, read-out: ED50 (the source's name)
[5] = tested on: SK-BR-3; experiment: Cytotoxicity against human SK-BR-3 cells after 72 hrs by SRB assay; conditions: SK-BR-3, 72 h, read-out: ED50 (the source's name)
[6] = tested on: ZR-75-1; experiment: Cytotoxicity against human ZR-75-1 cells after 72 hrs by SRB assay; conditions: ZR-75-1, 72 h, read-out: ED50 (the source's name)
[7] = tested on: MDA-MB-231; experiment: Cytotoxicity against human MDA-MB-231 cells after 72 hrs by SRB assay; conditions: MDA-MB-231, 72 h, read-out: ED50 (the source's name)

Structure (SMILES)	EC50 [1] [µM]	EC50 [2] [µM]	EC50 [3] [µM]	EC50 [4] [µM]	EC50 [5] [µM]	EC50 [6] [µM]	EC50 [7] [µM]
O=c1cc(Nc2cccc3ccccc23)c2ccc3ccccc3c2o1	0.27	0.2	0.25	0.3	0.32	0.53	0.47
O=c1cc(Nc2ccccc2Br)c2ccc3ccccc3c2o1	0.16	0.15	0.19	0.23	0.26	0.38	2.6
CCc1cccc2c1ccc1c(NCC(=O)N(C)OC)cc(=O)oc12	21.5	19.7	17.6	16.2	17.4	18.2	> 30
Cc1cccc2c1ccc1c3occ(C)c3c(=O)oc21	> 30	> 30	> 30	> 30	0.95	0.95	> 30
CCc1ccc(Nc2cc(=O)oc3c2ccc2ccccc23)cc1	0.28	0.18	0.2	0.3	0.3	0.79	1.4
CCCNc1cc(=O)oc2c1ccc1ccccc12	> 30	10.6	> 30	> 30	> 30	> 30	19.8
CON(C)C(=O)CNc1cc(=O)oc2c1ccc1ccccc12	2.2	3	3.1	3.2	4.5	0.48	5.8
O=c1cc(Nc2ccc(F)cc2)c2ccc3ccccc3c2o1	1.2	0.51	0.81	0.78	1.1	3.2	> 30
O=c1cc(Nc2ccc(Br)cc2)c2ccc3ccccc3c2o1	0.41	0.47	0.72	0.52	0.5	3.1	6.8
COc1cccc(Nc2cc(=O)oc3c2ccc2ccccc23)c1	0.22	0.17	0.29	0.27	0.3	0.5	1.3
Cc1ccccc1Nc1cc(=O)oc2c1ccc1ccccc12	2.1	0.84	1.3	1.3	1.6	4.3	8.3
O=c1cc(Nc2ccccc2)c2ccc3ccccc3c2o1	0.44	0.5	0.98	0.82	1.6	0.91	0.27
CCCN(CCC)c1cc(=O)oc2c1ccc1ccccc12	> 30	20.8	> 30	> 30	> 30	> 30	30
O=c1cc(N2CCOCC2)c2ccc3ccccc3c2o1	> 30	> 30	> 30	> 30	> 30	3.9	> 30
O=c1cc(Nc2cccc(Br)c2)c2ccc3ccccc3c2o1	> 30	> 30	> 30	> 30	> 30	> 30	> 30
O=c1cc(NC2CC2)c2ccc3ccccc3c2o1	7.8	9.9	29.8	9.6	20.8	19.5	10
Cc1cccc(Nc2cc(=O)oc3c2ccc2ccccc23)c1	0.14	0.14	0.15	0.14	0.15	0.08	0.76
O=c1cc(N2CCCCC2)c2ccc3ccccc3c2o1	> 30	10.9	> 30	> 30	> 30	> 30	30
Cc1ccc(Nc2cc(=O)oc3c2ccc2ccccc23)cc1	0.22	0.17	0.25	0.37	0.38	13	15.3
COc1ccc(Nc2cc(=O)oc3c2ccc2ccccc23)cc1	0.11	0.13	0.17	0.11	0.13	0.01	0.02
O=c1cc(NC2CCCCC2)c2ccc3ccccc3c2o1	0.61	0.43	0.72	0.97	1.3	5.8	4.1
COC(=O)CNc1cc(=O)oc2c1ccc1ccccc12	4.6	3.1	4.7	4.1	3.8	6.7	4.2
COc1ccccc1Nc1cc(=O)oc2c1ccc1ccccc12	0.5	0.47	0.6	0.76	0.64	4.7	7.3
CNc1cc(=O)oc2c1ccc1ccccc12	> 30	> 30	> 30	> 30	> 30	> 30	> 30

From ChEMBL document CHEMBL1177814, “Antitumor agents 278. 4-Amino-2H-benzo[h]chromen-2-one (ABO) analogs as potent in vitro anti-cancer agents” (2010)
